Where two headings read alike, the source gives them in different places. Bounds are passed on as bounds.

Assay [1] concerns Mycosphaerella graminicola; Anamorph: Septoria tritici. Put plainly: Leaf blotch of wheat (SEPTTR) disease control on wheat seedlings. It is filed as in vivo. The settings on record: Zymoseptoria tritici; for pest or weed control at 121.5 g/ha: low volume application, 121.5 g/H. An outline of the steps: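 Protective or curative format: Septoria tritici inoculation either preceded or followed fungicide application to first-leaf Yuma wheat. Severity scored 0–100%; control expressed versus untreated.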

Assay [2] has as its system Puccinia triticina; Synonym: Puccinia recondite f. sp. tritici. As to the kind of experiment: Wheat brown rust (PUCCRT) disease control on wheat seedlings. It is filed as in vivo. The following applies: Puccinia triticina; for pest or weed control at 121.5 g/ha: low volume application, 121.5 g/H. Put shortly: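 Yuma wheat grown to first fully emerged leaf was inoculated with Puccinia triticina spore suspension either before or after fungicide treatment, held overnight at 22° C. and 100% RH in darkness, then kept at 24° C. Fungicide applied by booth sprayer to run-off (acetone/water, 110 ppm Triton X-100) or as EC by track spray.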

[3] abbreviates: 24 h, Wheat Leaf Blotch, 1 Day Protectant, high volume application, read-out: Disease Control SEPTTR 1 DP 100 ppm.
[4] abbreviates: 72 h, Wheat Leaf Blotch, 3 Day Curative, high volume application, read-out: Disease Control SEPTTR 3 DC 100 ppm.
Where [5] appears, read: 24 h, Wheat Brown Rust, 1 Day Protectant, high volume application, read-out: Disease Control PUCCRT 1 DP 100 ppm.
Setting [6] is: 72 h, Wheat Brown Rust, 3 Day Curative, high volume application, read-out: Disease Control PUCCRT 3 DC 100 ppm.
Setting [7] is: 24 h, High volume application, 1 Day Protectant, read-out: SEPTTR 1DP disease control.
Setting [8] is: 72 h, High volume application, 3 Day Curative, read-out: SEPTTR 3DC disease control.
[9] abbreviates: 24 h, High volume application, 1 Day Protectant, read-out: PUCCRT 1DP disease control.
The mark [10] stands for this setting: 72 h, High volume application, 3 Day Curative, read-out: PUCCRT 3DC disease control.
[11] abbreviates: 24 h, Wheat Leaf Blotch, 1 Day Protectant, read-out: Disease Control SEPTTR 1 DP 121.5 g/H.
[12] abbreviates: 72 h, Wheat Leaf Blotch, 3 Day Curative, read-out: Disease Control SEPTTR 3 DC 121.5 g/H.
Setting [13] is: 24 h, Wheat Brown Rust, 1 Day Protectant, read-out: Disease Control PUCCRT 1 DP 121.5 g/H.
[14] abbreviates: 72 h, Wheat Brown Rust, 3 Day Curative, read-out: Disease Control PUCCRT 3 DC 121.5 g/H.

In the case of `CCCO[C@H]1CCC[C@H](NC(=O)c2nccc(OC)c2O)C(=O)O[C@@H](C)[C@@H]1Oc1ccc(OC)cc1` [F270], the pest or weed control at 100 ppm in assay [1] (setting [3]) fell in the range of 80 to 100%; in assay [1] (setting [4]), 0 to 80%; in assay [2] (setting [5]), 80 to 100%; in assay [2] (setting [6]) it was 80 to 100%.

Regarding `CCCO[C@H]1CCC[C@H](NC(=O)c2nccc(OC)c2O)C(=O)O[C@@H](C)[C@@H]1Oc1ccc(Br)cc1` [F273], the pest or weed control at 100 ppm in assay [1] (setting [3]) is 80 to 100%; in assay [1] (setting [4]), 0 to 80%; in assay [2] (setting [5]), 80 to 100%; in assay [2] (setting [6]), 80 to 100%.

With `COc1ccnc(C(=O)N[C@H]2CCC[C@H](OC3CCCC3)[C@@H](OCCCc3ccccc3)[C@H](C)OC2=O)c1O` [F163], the pest or weed control at 100 ppm in assay [1] (setting [7]) lay in the range of 80 to 100%; in assay [1] (setting [8]), 0 to 80%; in assay [2] (setting [9]), 80 to 100%; in assay [2] (setting [10]), 80 to 100%.

On to `COc1ccnc(C(=O)N[C@H]2CCC[C@H](OCC3CC3)[C@@H](OCC3CC3)[C@H](C)OC2=O)c1O` [F117], for which the pest or weed control at 100 ppm in assay [1] (setting [7]) is < 0%; in assay [1] (setting [8]), 80 to 100%; in assay [2] (setting [9]), 80 to 100%; in assay [2] (setting [10]), 80 to 100%.

As for `CCCO[C@H]1[C@H](C)OC(=O)[C@@H](NC(=O)c2nccc(OC)c2OC(C)=O)CCC[C@@H]1Oc1cc(C)cc(C)c1` [F282], the pest or weed control at 100 ppm in assay [1] (setting [3]), in assay [1] (setting [4]), in assay [2] (setting [5]) and in assay [2] (setting [6]) was 80 to 100% each time. The pest or weed control at 121.5 g/ha in assay [1] (setting [11]), in assay [1] (setting [12]), in assay [2] (setting [13]) and in assay [2] (setting [14]) was 80 to 100% in each case.

Take `CCCO[C@H]1CCC[C@H](NC(=O)c2nccc(OC)c2OC(C)=O)C(=O)O[C@@H](C)[C@@H]1Oc1ccc(OC)cc1` [F274]: the pest or weed control at 100 ppm in assay [1] (setting [3]), in assay [1] (setting [4]), in assay [2] (setting [5]) and in assay [2] (setting [6]) was 80 to 100% in each case. In addition, the pest or weed control at 121.5 g/ha in assay [1] (setting [11]) was in the range of 80 to 100%; in assay [1] (setting [12]), 80 to 100%; in assay [2] (setting [13]) it was 80 to 100%; in assay [2] (setting [14]), 0 to 80%.

`CCCO[C@H]1[C@H](C)OC(=O)[C@@H](NC(=O)c2nccc(OC)c2O)CCC[C@@H]1Oc1cccc(F)c1` [F280]: the pest or weed control at 100 ppm lay within 80 to 100% in assay [1] (setting [3]), 80 to 100% in assay [1] (setting [4]), 80 to 100% in assay [2] (setting [5]) and 0 to 80% in assay [2] (setting [6]).

`CCCO[C@H]1CCC[C@H](NC(=O)c2nccc(OC)c2O)C(=O)O[C@@H](C)[C@@H]1Oc1ccc(F)cc1` [F262]: the pest or weed control at 100 ppm in assay [1] (setting [3]) lay in the range of 80 to 100%; in assay [1] (setting [4]) it was 80 to 100%; in assay [2] (setting [5]), 0 to 80%; in assay [2] (setting [6]), 80 to 100%.

As to `COc1ccnc(C(=O)N[C@H]2CCC[C@H](Oc3ccccc3)[C@@H](OC)[C@H](C)OC2=O)c1OC(C)=O` [F258], the pest or weed control at 121.5 g/ha was 0 to 80% in assay [1] (setting [11]), 0 to 80% in assay [1] (setting [12]), 80 to 100% in assay [2] (setting [13]) and 80 to 100% in assay [2] (setting [14]).

As to `COc1ccnc(C(=O)N[C@H]2CCC[C@H](OCC(C)C)[C@@H](OC)[C@H](C)OC2=O)c1O` [F247], the pest or weed control at 100 ppm in assay [1] (setting [3]) fell in the range of 80 to 100%; in assay [1] (setting [4]), 0 to 80%; in assay [2] (setting [5]) it was 80 to 100%; in assay [2] (setting [6]) it was 80 to 100%.

`COCCC(=O)Oc1c(OC)ccnc1C(=O)N[C@H]1CCC[C@H](OCC(C)C)[C@@H](OC)[C@H](C)OC1=O` [F259]: the pest or weed control at 121.5 g/ha is < 0% in assay [1] (setting [11]), 80 to 100% in assay [1] (setting [12]), 80 to 100% in assay [2] (setting [13]) and 80 to 100% in assay [2] (setting [14]).

`COc1ccnc(C(=O)N[C@H]2CCC[C@H](OCc3ccccc3)[C@@H](OCc3ccccc3)[C@H](C)OC2=O)c1O` [F22]: the pest or weed control at 100 ppm in assay [1] (setting [7]), in assay [1] (setting [8]), in assay [2] (setting [9]) and in assay [2] (setting [10]) was 80 to 100% in each case.

As to `COc1ccnc(C(=O)N[C@H]2CCC[C@H](OCCCC(F)(F)F)[C@@H](OC3CCCC3)[C@H](C)OC2=O)c1O` [F168], the pest or weed control at 100 ppm in assay [1] (setting [7]), in assay [1] (setting [8]), in assay [2] (setting [9]) and in assay [2] (setting [10]) was 80 to 100% in each case.

With `COc1ccnc(C(=O)N[C@H]2CCC[C@H](Oc3ccccc3)[C@@H](OC(=O)C3CCCC3)[C@H](C)OC2=O)c1OCOC(=O)C(C)C` [F234], the pest or weed control at 100 ppm in assay [1] (setting [3]), in assay [1] (setting [4]), in assay [2] (setting [5]) and in assay [2] (setting [6]) was 80 to 100% each time. Further, the pest or weed control at 121.5 g/ha in assay [1] (setting [11]) is 80 to 100%; in assay [1] (setting [12]) it was < 0%; in assay [2] (setting [13]), 80 to 100%; in assay [2] (setting [14]), < 0%.

As for `COc1ccnc(C(=O)N[C@H]2CCC[C@H](OCC(C)C)[C@@H](Oc3ccc(C)cc3)[C@H](C)OC2=O)c1OC(C)=O` [F92], the pest or weed control at 100 ppm in assay [1] (setting [7]), in assay [1] (setting [8]), in assay [2] (setting [9]) and in assay [2] (setting [10]) was 80 to 100% each time.

As for `COc1ccnc(C(=O)N[C@H]2CCC[C@H](OC3CCCC3)[C@@H](OC(=O)C3CCCC3)[C@H](C)OC2=O)c1O` [F143], the pest or weed control at 100 ppm in assay [1] (setting [7]) was in the range of 80 to 100%; in assay [1] (setting [8]), 0 to 80%; in assay [2] (setting [9]) it was 80 to 100%; in assay [2] (setting [10]), 80 to 100%.

With `COc1ccnc(C(=O)N[C@H]2CCC[C@H](OCCCc3ccccc3)[C@@H](OC3CCCC3)[C@H](C)OC2=O)c1OCOC(C)=O` [F225], the pest or weed control at 100 ppm in assay [1] (setting [7]), in assay [1] (setting [8]), in assay [2] (setting [9]) and in assay [2] (setting [10]) was 80 to 100% throughout.

As to `COc1ccnc(C(=O)N[C@H]2CCC[C@H](OCCCC(F)(F)F)[C@@H](Oc3ccccc3)[C@H](C)OC2=O)c1OCOC(=O)C(C)C` [F136], the pest or weed control at 100 ppm in assay [1] (setting [7]), in assay [1] (setting [8]), in assay [2] (setting [9]) and in assay [2] (setting [10]) was 80 to 100% each time.

Turning to `COc1ccnc(C(=O)N[C@H]2CCC[C@H](OCC(C)C)[C@@H](Oc3ccccc3)[C@H](C)OC2=O)c1O` [F25], the pest or weed control at 100 ppm in assay [1] (setting [7]), in assay [1] (setting [8]), in assay [2] (setting [9]) and in assay [2] (setting [10]) was 80 to 100% throughout.

In the case of `COc1ccnc(C(=O)N[C@H]2CCC[C@H](Oc3ccccc3)[C@@H](OCCCc3ccccc3)[C@H](C)OC2=O)c1OCOC(=O)C(C)C` [F112], the pest or weed control at 100 ppm in assay [1] (setting [7]), in assay [1] (setting [8]), in assay [2] (setting [9]) and in assay [2] (setting [10]) was 80 to 100% in each case.

In the case of `CCCCCO[C@H]1[C@H](C)OC(=O)[C@@H](NC(=O)c2nccc(OC)c2OC(C)=O)CCC[C@@H]1OCC(C)C` [F89], the pest or weed control at 100 ppm in assay [1] (setting [7]), in assay [1] (setting [8]), in assay [2] (setting [9]) and in assay [2] (setting [10]) was 80 to 100% throughout.
